Experimental data from article PMC12709667 (Journal of Clinical Pharmacology, 2025).
Where “and” joins values, the source holds several entries; their conditions need not be identical. Identical values can stand only once.

Columns and labels:
CYP2C8 = molecular target: T1, CYP2C8 (Homo sapiens, UniProt P10632); assay: Cytochrome P450 inhibition; assay type: in vitro ADME
T1 sequence (P10632 1-490): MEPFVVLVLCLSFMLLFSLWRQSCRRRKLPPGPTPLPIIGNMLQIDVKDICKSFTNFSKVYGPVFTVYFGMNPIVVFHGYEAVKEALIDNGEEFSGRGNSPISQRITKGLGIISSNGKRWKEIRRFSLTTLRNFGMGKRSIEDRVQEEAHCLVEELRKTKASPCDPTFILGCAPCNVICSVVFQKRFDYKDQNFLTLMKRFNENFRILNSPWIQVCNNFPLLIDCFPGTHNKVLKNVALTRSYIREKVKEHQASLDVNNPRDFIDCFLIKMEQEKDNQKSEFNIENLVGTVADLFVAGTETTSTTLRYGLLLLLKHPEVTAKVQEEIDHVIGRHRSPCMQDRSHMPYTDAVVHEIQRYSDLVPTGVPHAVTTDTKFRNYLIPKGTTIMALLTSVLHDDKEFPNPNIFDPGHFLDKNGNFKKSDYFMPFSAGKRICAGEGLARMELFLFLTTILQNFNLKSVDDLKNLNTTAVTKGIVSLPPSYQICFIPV

OATP1B1 = molecular target: T2, OATP1B1 (Homo sapiens, UniProt Q9Y6L6); assay: Transporter substrate assessment; assay type: in vitro ADME
T2 sequence (Q9Y6L6 1-691): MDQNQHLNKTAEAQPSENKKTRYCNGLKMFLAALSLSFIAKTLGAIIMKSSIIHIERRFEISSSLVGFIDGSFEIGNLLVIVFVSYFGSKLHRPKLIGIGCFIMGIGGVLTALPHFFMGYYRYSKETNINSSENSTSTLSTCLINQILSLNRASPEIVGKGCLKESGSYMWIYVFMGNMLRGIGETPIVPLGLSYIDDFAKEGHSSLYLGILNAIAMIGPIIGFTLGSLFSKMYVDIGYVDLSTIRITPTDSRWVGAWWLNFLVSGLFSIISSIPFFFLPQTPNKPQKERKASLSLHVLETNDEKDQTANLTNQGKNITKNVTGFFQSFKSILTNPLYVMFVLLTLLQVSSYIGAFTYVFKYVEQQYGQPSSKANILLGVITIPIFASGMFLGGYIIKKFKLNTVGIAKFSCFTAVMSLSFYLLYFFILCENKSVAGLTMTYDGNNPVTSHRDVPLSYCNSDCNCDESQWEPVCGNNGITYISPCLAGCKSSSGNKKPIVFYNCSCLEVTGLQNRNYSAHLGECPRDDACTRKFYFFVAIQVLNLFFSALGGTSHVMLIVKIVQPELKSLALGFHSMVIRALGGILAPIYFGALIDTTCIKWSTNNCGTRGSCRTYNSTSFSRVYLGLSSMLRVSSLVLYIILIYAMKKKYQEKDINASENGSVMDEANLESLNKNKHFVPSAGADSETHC

[1] = 28-day Good Laboratory Practice toxicology study; assay type: in vivo, mouse; settings: mice
BCRP [2] = molecular target: T3, BCRP (Homo sapiens, UniProt Q9UNQ0); assay: Transporter substrate assessment; assay type: in vitro ADME
T3 sequence (Q9UNQ0 1-655): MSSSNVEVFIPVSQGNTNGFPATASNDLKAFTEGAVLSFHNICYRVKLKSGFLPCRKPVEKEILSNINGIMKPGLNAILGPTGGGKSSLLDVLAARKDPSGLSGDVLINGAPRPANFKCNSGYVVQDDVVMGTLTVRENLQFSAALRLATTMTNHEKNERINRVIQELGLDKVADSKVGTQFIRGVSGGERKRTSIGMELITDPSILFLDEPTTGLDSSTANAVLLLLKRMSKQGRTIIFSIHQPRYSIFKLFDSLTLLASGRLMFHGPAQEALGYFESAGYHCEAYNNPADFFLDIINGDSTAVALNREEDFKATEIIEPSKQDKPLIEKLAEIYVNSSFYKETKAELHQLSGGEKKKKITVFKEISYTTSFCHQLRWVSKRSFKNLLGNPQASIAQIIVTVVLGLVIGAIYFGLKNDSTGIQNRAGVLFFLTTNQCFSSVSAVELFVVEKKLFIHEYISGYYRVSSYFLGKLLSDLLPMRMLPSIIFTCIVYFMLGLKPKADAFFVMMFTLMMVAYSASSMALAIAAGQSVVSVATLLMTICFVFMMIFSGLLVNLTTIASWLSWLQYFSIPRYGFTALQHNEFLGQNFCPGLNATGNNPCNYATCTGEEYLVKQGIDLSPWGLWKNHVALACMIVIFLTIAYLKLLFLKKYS

OATP1B3 = molecular target: T4, OATP1B3 (Homo sapiens, UniProt Q9NPD5); assay: Transporter substrate assessment; assay type: in vitro ADME
T4 sequence (Q9NPD5 1-702): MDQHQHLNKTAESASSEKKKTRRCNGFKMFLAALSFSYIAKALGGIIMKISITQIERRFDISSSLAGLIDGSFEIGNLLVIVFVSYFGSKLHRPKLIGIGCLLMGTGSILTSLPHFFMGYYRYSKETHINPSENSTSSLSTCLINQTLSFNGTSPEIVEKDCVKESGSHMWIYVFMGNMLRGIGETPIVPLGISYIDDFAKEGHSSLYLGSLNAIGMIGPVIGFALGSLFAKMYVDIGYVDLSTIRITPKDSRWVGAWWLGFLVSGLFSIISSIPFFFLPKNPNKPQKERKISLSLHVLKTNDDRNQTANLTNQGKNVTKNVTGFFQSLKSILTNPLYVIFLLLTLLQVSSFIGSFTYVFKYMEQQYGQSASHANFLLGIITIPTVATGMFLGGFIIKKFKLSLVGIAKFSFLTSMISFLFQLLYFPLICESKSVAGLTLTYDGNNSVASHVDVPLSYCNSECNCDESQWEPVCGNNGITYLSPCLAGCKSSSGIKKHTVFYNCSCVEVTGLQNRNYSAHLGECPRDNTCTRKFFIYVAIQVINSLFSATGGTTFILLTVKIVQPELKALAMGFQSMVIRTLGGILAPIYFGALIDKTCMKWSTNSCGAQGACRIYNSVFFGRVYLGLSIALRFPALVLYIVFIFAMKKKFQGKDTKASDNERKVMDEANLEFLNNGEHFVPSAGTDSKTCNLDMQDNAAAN

CYP1A2 = assay type: in vitro ADME, human; settings: up to 10 µM, three donors
DDI perpetrator study = assay type: in vivo; settings: human, plasma, oral, 400 mg
BCRP [3] = molecular target: T3, BCRP; assay: DDI perpetrator study: rosuvastatin probe; assay type: in vivo; settings: miricorilant 400 mg once daily as perpetrator
Human [14C] ADME study = assay type: in vivo

SMILES: O=c1[nH]c(=O)c(Cc2cccc(C(F)(F)F)c2)c([C@H]2CC[C@H](c3ccccc3)CC2)[nH]1 [miricorilant]
- IC50 (CYP2C8): 7.5 µM
- time dependence of CYP2C8 inhibition (CYP2C8): not time dependent
- Substrate of OATP1B1 (OATP1B1): not a substrate
- adverse effects in 28‐day toxicology study [1]: No adverse effects
- Substrate of BCRP (BCRP [2]): not a substrate
- Substrate of OATP1B3 (OATP1B3): not a substrate
- induction of CYP1A2 (CYP1A2): no induction
- AUC (DDI perpetrator study): 11400 ng·h/mL
- Cmax at 10 study day (DDI perpetrator study): 895 ng/mL
- Tmax at 10 study day (DDI perpetrator study): 4 h
- half-life at 10 study day (DDI perpetrator study): 12.2 h
- clinical inhibition of BCRP (BCRP [3]): moderate inhibitor
- administered radioactivity recovered in excreta (Human [14C] ADME study; 240‐h sampling period, mean ± SD): 93.68 ± 1.63%
- administered dose recovered in urine (Human [14C] ADME study; human, 150 mg oral solution): 4.56%
- total radioactivity recovered in feces (Human [14C] ADME study; human, 150 mg oral solution): 89.12% and 89.12 ± 1.16%
- Cmax (Human [14C] ADME study; male, human, plasma, po, 150 mg): 343 ng/mL
- administered radioactivity eliminated (Human [14C] ADME study; within the first 48 h post dose): 19.28 ± 9.01%
